Source: patent publication US9951065B2 (Gilead Sciences, Inc., priority 2015, dated 2018)

target: T1, IDO1 (Homo sapiens, UniProt P14902); experiment: Cell-based (HeLa) assay for measurement of IDO1 inhibition (kynurenine levels in supernatant after IFNγ induction); conditions: HeLa cells, IFNγ-induced IDO1, kynurenine in supernatant after 48 hour incubation; geometric mean of a minimum of four determinations
T1 construct: HeLa cells were treated with a test compound in the presence of IFNγ, which induces IDO1 expression; host or cells: H1-HeLa cells, IDO1 induced with IFNγ
T1 sequence (P14902 whole entry): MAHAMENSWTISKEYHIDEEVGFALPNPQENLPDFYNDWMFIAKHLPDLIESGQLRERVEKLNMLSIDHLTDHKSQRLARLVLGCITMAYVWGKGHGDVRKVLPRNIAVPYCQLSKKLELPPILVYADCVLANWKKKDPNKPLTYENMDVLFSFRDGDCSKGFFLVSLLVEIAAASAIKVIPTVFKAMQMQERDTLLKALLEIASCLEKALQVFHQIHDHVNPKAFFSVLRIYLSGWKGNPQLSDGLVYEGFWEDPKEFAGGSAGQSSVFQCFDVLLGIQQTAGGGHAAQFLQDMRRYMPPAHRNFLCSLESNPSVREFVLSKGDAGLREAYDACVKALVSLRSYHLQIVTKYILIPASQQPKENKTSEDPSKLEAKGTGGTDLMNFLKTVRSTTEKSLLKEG
Description: Example 509. Cell-Based (HeLa) Assay for Measurement of IDOL Inhibition
To measure IDO1 inhibition in tissue culture, HeLa cells were treated with a test compound in the presence of IFNγ, which induces IDO1 expression. Following incubation, cell supernatants were assayed for kynurenine levels, an indicator of IDO1 activity.
H1-HeLa cells (ATCC #CRL-1958) were seeded in 384-well plates (Greiner #82051-282) at a volume of 50 μL/well in DMEM (Corning #15-018-CM) supplemented with 10% FBS (Corning #35-011-CV) and 1% P/S/G (Corning #30-009-CL) at a density of 1,250 cells/well and incubated overnight at 37° C., 5% CO2/100% humidity. The following day, the test compounds were added in DMSO (0.5% final) at various concentrations, and IDO1 was inducibly expressed by the addition of 50 uL/well of […] of INFγ (Peprotech #300-02) in cell plating media. As a […] control, 50 uL of the cell plating media without IFNγ was added to several wells. Following a 48 hour incubation, the plates were spun down at 1,200 RPM for 5 min at 10° C. 65 μL/well of the supernatant was then transferred to new 384-well plates (Thermo #262160) that contained 10 uL/well of 30% TCA (Sigma #TO699), and the plates were sealed and incubated at 60° C. for 30 min. The plates were then centrifuged for 15 min at 2,000 RPM at 10° C. 40 μL/well of the supernatant was transferred to new 384-well plates (Thermo #262160) and was reacted with 40 μL/well of 2% (w/v) p-dimethlyaminobenzaldehyde (Sigma #156417) in glacial acetic acid (Sigma #A6283). The reaction was incubated at room temperature for 10 min and absorbance at 480 nm was read using a PerkinElmer Envision plate reader.
Data in Table 1 were normalized based on positive (−IFNγ) and negative (+IFNγ) controls and EC50 values were calculated from the fit of the dose response curves to a four-parameter equation. All EC50 values represent geometric mean values of a minimum of four determinations. These assays generally produced results within 2-fold of the reported mean.

| EC50 [µM] | Compound |
| --- | --- |
| 0.371 | O/N=C(\Nc1cc(Br)c(F)cc1F)c1ccnc2nc[nH]c12 [Example 61, N-(5-Bromo-2,4-difluorophenyl)-N′-hydroxy-1H-imidazo[4,5-b]pyridine-7-carboximidamide] |
| 0.385 | O/N=C(\Nc1cc(Cl)c(F)cc1F)c1ccnc2nc[nH]c12 [Example 62, N-(5-Chloro-2,4-difluorophenyl)-N′-hydroxy-1H-imidazo[4,5-b]pyridine-7-carboximidamide] |
| 0.774 | O/N=C(\Nc1cc(Cl)c(F)c(Cl)c1)c1ccnc2nc[nH]c12 [Example 63, N-(3,5-Dichloro-4-fluorophenyl)-N′-hydroxy-1H-imidazo[4,5-b]pyridine-7-carboximidamide] |
| 0.813 | O/N=C(\Nc1ccc(F)c(Cl)c1F)c1ccnc2nc[nH]c12 [Example 64, N-(3-Chloro-2,4-difluorophenyl)-N′-hydroxy-1H-imidazo[4,5-b]pyridine-7-carboximidamide] |
| 1.81 | O/N=C(\Nc1ccc(F)c(C2CC2)c1)c1ccnc2nc[nH]c12 [Example 65, N-(3-Cyclopropyl-4-fluorophenyl)-N′-hydroxy-1H-imidazo[4,5-b]pyridine-7-carboximidamide] |
| 4.87 | O/N=C(\Nc1ccc(OC(F)(F)F)cc1)c1ccnc2nc[nH]c12 [Example 66, N′-Hydroxy-N-(4-(trifluoromethoxy)phenyl)-1H-imidazo[4,5-b]pyridine-7-carboximidamide] |
| 0.583 | O/N=C(\Nc1cccc2occc12)c1ccnc2nc[nH]c12 [Example 67, N-(Benzofuran-4-yl)-N′-hydroxy-1H-imidazo[4,5-b]pyridine-7-carboximidamide] |
| 0.89 | O/N=C(\Nc1ccc2ccoc2c1)c1ccnc2nc[nH]c12 [Example 68, N-(Benzofuran-6-yl)-N′-hydroxy-1H-imidazo[4,5-b]pyridine-7-carboximidamide] |
| 1.34 | O/N=C(\Nc1cccc2ccoc12)c1ccnc2nc[nH]c12 [Example 69, N-(Benzofuran-7-yl)-N′-hydroxy-1H-imidazo[4,5-b]pyridine-7-carboximidamide] |
| 1.48 | O/N=C(\Nc1ccc2occc2c1)c1ccnc2nc[nH]c12 [Example 70, N-(benzofuran-5-yl)-N′-hydroxy-1H-imidazo[4,5-b]pyridine-7-carboximidamide] |
| 0.207 | O/N=C(\Nc1cc(Br)ccc1F)c1ccnc2nc[nH]c12 [Example 71, N-(5-Bromo-2-fluorophenyl)-N′-hydroxy-1H-imidazo[4,5-b]pyridine-7-carboximidamide] |
| 0.28 | O/N=C(\Nc1cc(F)cc(Br)c1)c1ccnc2nc[nH]c12 [Example 72, N-(3-Bromo-5-fluorophenyl)-N′-hydroxy-1H-imidazo[4,5-b]pyridine-7-carboximidamide] |
| 0.373 | O/N=C(\Nc1cccc(C(F)(F)F)c1)c1ccnc2nc[nH]c12 [Example 73, N′-Hydroxy-N-(3-(trifluoromethyl)phenyl)-1H-imidazo[4,5-b]pyridine-7-carboximidamide] |
| 0.923 | O/N=C(\Nc1ccc2c(c1)OC(F)(F)O2)c1ccnc2nc[nH]c12 [Example 74, N-(2,2-Difluorobenzo[d][1,3]dioxol-5-yl)-N′-hydroxy-1H-imidazo[4,5-b]pyridine-7-carboximidamide] |
| 2.11 | O/N=C(\Nc1cc(F)cc(C(F)(F)F)c1)c1ccnc2nc[nH]c12 [Example 75, N-(3-Fluoro-5-(trifluoromethyl)phenyl)-N′-hydroxy-1H-imidazo[4,5-b]pyridine-7-carboximidamide] |
| 0.769 | O/N=C(\Nc1cc(Cl)ccc1Cl)c1ccnc2nc[nH]c12 [Example 76, N-(2,5-Dichlorophenyl)-N′-hydroxy-1H-imidazo[4,5-b]pyridine-7-carboximidamide] |

| EC50 [µM] | Compound |
| --- | --- |
| 2.29 | O/N=C(\Nc1ccc(F)c(-c2ccccc2)c1)c1ccnc2nc[nH]c12 [Example 77, N-(6-Fluoro-[1,1′-biphenyl]-3-yl)-N′-hydroxy-1H-imidazo[4,5-b]pyridine-7-carboximidamide] |
| 2.64 | CCC#Cc1cc(N/C(=N\O)c2ccnc3nc[nH]c23)ccc1F [Example 78, N-(3-(But-1-yn-1-yl)-4-fluorophenyl)-N′-hydroxy-1H-imidazo[4,5-b]pyridine-7-carboximidamide] |
| 3.22 | O/N=C(\Nc1ccc(F)c(C#CC2CC2)c1)c1ccnc2nc[nH]c12 [Example 79, N-(3-(Cyclopropylethynyl)-4-fluorophenyl)-N′-hydroxy-1H-imidazo[4,5-b]pyridine-7-carboximidamide] |
| 0.111 | O/N=C(\Nc1cccc(Br)c1)c1ccnc2nc[nH]c12 [Example 80, N-(3-Bromophenyl)-N′-hydroxy-1H-imidazo[4,5-b]pyridine-7-carboximidamide] |
| 0.14 | O/N=C(\Nc1ccc(F)c(Br)c1)c1ccnc2nc[nH]c12 [Example 81, N-(3-Bromo-4-fluorophenyl)-N′-hydroxy-1H-imidazo[4,5-b]pyridine-7-carboximidamide] |
| 0.16 | O/N=C(\Nc1cccc(Cl)c1)c1ccnc2nc[nH]c12 [Example 82, N-(3-Chlorophenyl)-N′-hydroxy-1H-imidazo[4,5-b]pyridine-7-carboximidamide] |
| 0.315 | O/N=C(\Nc1ccc(F)c(C(F)(F)F)c1)c1ccnc2nc[nH]c12 [Example 83, N-(4-Fluoro-3-(trifluoromethyl)phenyl)-N′-hydroxy-1H-imidazo[4,5-b]pyridine-7-carboximidamide] |
| 0.445 | CC#Cc1cc(N/C(=N\O)c2ccnc3nc[nH]c23)ccc1F [Example 84, N-(4-Fluoro-3-(prop-1-yn-1-yl)phenyl)-N′-hydroxy-1H-imidazo[4,5-b]pyridine-7-carboximidamide] |
| 0.462 | O/N=C(\Nc1ccc(Cl)c(Br)c1)c1ccnc2nc[nH]c12 [Example 85, N-(3-Bromo-4-chlorophenyl)-N′-hydroxy-1H-imidazo[4,5-b]pyridine-7-carboximidamide] |
| 0.639 | O/N=C(\Nc1ccc(Cl)c(Cl)c1)c1ccnc2nc[nH]c12 [Example 86, N-(3,4-Dichlorophenyl)-N′-hydroxy-1H-imidazo[4,5-b]pyridine-7-carboximidamide] |
| 0.846 | O/N=C(\Nc1ccc(Cl)cc1)c1ccnc2nc[nH]c12 [Example 87, N-(4-Chlorophenyl)-N′-hydroxy-1H-imidazo[4,5-b]pyridine-7-carboximidamide] |
| 0.916 | O/N=C(\Nc1ccc(Br)cc1)c1ccnc2nc[nH]c12 [Example 88, N-(4-Bromophenyl)-N′-hydroxy-1H-imidazo[4,5-b]pyridine-7-carboximidamide] |
| 0.943 | O/N=C(\Nc1ccc(F)cc1)c1ccnc2nc[nH]c12 [Example 89, N-(4-Fluorophenyl)-N′-hydroxy-1H-imidazo[4,5-b]pyridine-7-carboximidamide] |
| 1.05 | N#Cc1cc(N/C(=N\O)c2ccnc3nc[nH]c23)ccc1F [Example 90, N-(3-Cyano-4-fluorophenyl)-N′-hydroxy-1H-imidazo[4,5-b]pyridine-7-carboximidamide] |
| 2.24 | O/N=C(\Nc1ccc(C(F)(F)F)cc1)c1ccnc2nc[nH]c12 [Example 91, N′-Hydroxy-N-(4-(trifluoromethyl)phenyl)-1H-imidazo[4,5-b]pyridine-7-carboximidamide] |
| 3.89 | COc1cccc(N/C(=N\O)c2ccnc3nc[nH]c23)c1 [Example 92, N′-Hydroxy-N-(3-methoxyphenyl)-1H-imidazo[4,5-b]pyridine-7-carboximidamide] |
